Publication PMC11480511 (Scientific Reports, 2024)
Converted amounts (≈) assume the structure as drawn. “And” between values parts separate entries of the source, which are not always exact repeats. Identical values can stand only once.

Assays:
[1] = test system: HL-60(TB); assay: NCI single-dose growth inhibition screen; type: cell-based; conditions: Homo sapiens; Leukemia HL-60(TB); single dose 10^−5 M
[2] = test system: K-562; assay: NCI single-dose growth inhibition screen; type: cell-based; conditions: Homo sapiens, K562; Leukemia K-562; single dose 10^−5 M
[3] = test system: MOLT-4; assay: NCI single-dose growth inhibition screen; type: cell-based; conditions: Homo sapiens; Leukemia MOLT-4; single dose 10^−5 M
[4] = test system: RPMI-8226; assay: NCI single-dose growth inhibition screen; type: cell-based; conditions: Homo sapiens; Leukemia RPMI-8226; single dose 10^−5 M
[5] = test system: A549/ATCC; assay: NCI single-dose growth inhibition screen; type: cell-based; conditions: Homo sapiens; Non-Small Cell Lung Cancer A549/ATCC; single dose 10^−5 M
[6] = test system: EKVX; assay: NCI single-dose growth inhibition screen; type: cell-based; conditions: Homo sapiens; Non-Small Cell Lung Cancer EKVX; single dose 10^−5 M
[7] = test system: HOP-62; assay: NCI single-dose growth inhibition screen; type: cell-based; conditions: Homo sapiens; Non-Small Cell Lung Cancer HOP-62; single dose 10^−5 M
[8] = test system: HOP-92; assay: NCI single-dose growth inhibition screen; type: cell-based; conditions: Homo sapiens; Non-Small Cell Lung Cancer HOP-92; single dose 10^−5 M
[9] = test system: NCI-H322M; assay: NCI single-dose growth inhibition screen; type: cell-based; conditions: Homo sapiens; Non-Small Cell Lung Cancer NCI-H322M; single dose 10^−5 M
[10] = test system: NCI-H460; assay: NCI single-dose growth inhibition screen; type: cell-based; conditions: Homo sapiens; Non-Small Cell Lung Cancer NCI-H460; single dose 10^−5 M
[11] = test system: NCI-H522; assay: NCI single-dose growth inhibition screen; type: cell-based; conditions: Homo sapiens; Non-Small Cell Lung Cancer NCI-H522; single dose 10^−5 M
[12] = test system: SF-539; assay: NCI single-dose growth inhibition screen; type: cell-based; conditions: Homo sapiens; CNS Cancer SF-539; single dose 10^−5 M
[13] = test system: SNB-19; assay: NCI single-dose growth inhibition screen; type: cell-based; conditions: Homo sapiens; CNS Cancer SNB-19; single dose 10^−5 M
[14] = test system: SNB-75; assay: NCI single-dose growth inhibition screen; type: cell-based, human; conditions: Homo sapiens, SNB-75, CNS Cancer SNB-75; single dose 10^−5 M
[15] = test system: LOX IMVI; assay: NCI single-dose growth inhibition screen; type: cell-based, human; conditions: Melanoma LOX IMVI, single dose 10^−5 M; for inhibition at 10 µM: Homo sapiens, LOX IMVI
[16] = test system: M14; assay: NCI single-dose growth inhibition screen; type: cell-based; conditions: Homo sapiens; Melanoma M14; single dose 10^−5 M
Description: Following the guidelines established by the drug evaluation department of the National Cancer Institute (NCI), USA, all target compounds 3a–l were examined against 60 cancer cell lines at a single concentration of 10 µM.
The anti-cancer potential of the tested compounds was evaluated at the National cancer institute (NCI), USA, against 9 panels of 60 various cell lines derived from nine human tumours available usually at NCI library. The procedures for the screening were described in details in NCI website (dttp://www.dtp.nci.nih.gov.) and were done according to NCI protocols[60] . The anticancer screening was carried out at single dose of 10^−5 M, NCI, Bethesda, USA. The results obtained as growth inhibition (%).

[17] = test system: UACC-257; assay: NCI single-dose growth inhibition screen; type: cell-based; conditions: Homo sapiens; Melanoma UACC-257; single dose 10^−5 M
[18] = test system: UACC-62; assay: NCI single-dose growth inhibition screen; type: cell-based; conditions: Homo sapiens; Melanoma UACC-62; single dose 10^−5 M
[19] = test system: IGROV1; assay: NCI single-dose growth inhibition screen; type: cell-based; conditions: Homo sapiens, IGROV-1; Ovarian Cancer IGROV1; single dose 10^−5 M
[20] = test system: OVCAR-8; assay: NCI single-dose growth inhibition screen; type: cell-based; conditions: Homo sapiens; Ovarian Cancer OVCAR-8; single dose 10^−5 M
[21] = test system: A498; assay: NCI single-dose growth inhibition screen; type: cell-based, human; conditions: Homo sapiens, A498, Renal Cancer A498; single dose 10^−5 M
[22] = test system: UO-31; assay: NCI single-dose growth inhibition screen; type: cell-based, human; conditions: single dose 10^−5 M; for inhibition at 10 µM: Homo sapiens, UO-31, Renal Cancer UO-31
[23] = test system: MCF7; assay: NCI single-dose growth inhibition screen; type: cell-based, human; conditions: single dose 10^−5 M; for inhibition at 10 µM: Homo sapiens, MCF7, Breast Cancer MCF7
[24] = test system: HS 578T; assay: NCI single-dose growth inhibition screen; type: cell-based; conditions: Homo sapiens; Breast Cancer HS 578T; single dose 10^−5 M
[25] = test system: BT-549; assay: NCI single-dose growth inhibition screen; type: cell-based; conditions: Homo sapiens; Breast Cancer BT-549; single dose 10^−5 M
[26] = test system: T-47D; assay: NCI single-dose growth inhibition screen; type: cell-based; conditions: Homo sapiens, T47D; Breast Cancer T-47D; single dose 10^−5 M
[27] = test system: PC-3; assay: NCI single-dose growth inhibition screen; type: cell-based; conditions: Homo sapiens; Prostate Cancer PC-3; single dose 10^−5 M
[28] = test system: DU-145; assay: NCI single-dose growth inhibition screen; type: cell-based; conditions: Homo sapiens; Prostate Cancer DU-145; single dose 10^−5 M
[29] = test system: S. aureus ATCC 6538; assay: Antibacterial screening, agar cup diffusion method; type: cell-based; conditions: Staphylococcus aureus, ATCC6538; Gram + ve strain; read-out: Minimum inhibitory concentrations (MIC, µM) S. aureus ATCC 6538
[30] = test system: P. aeruginosa ATCC 27,853; assay: Antibacterial screening, agar cup diffusion method; type: cell-based; conditions: Pseudomonas aeruginosa, ATCC27; Gram –ve strain; read-out: Minimum inhibitory concentrations (MIC, µM) P. aeruginosa ATCC 27,853
[31] = test system: human melanoma LOX IMVI; assay: cells
[32] = test system: A498 renal cancer cell line; assay: cells; conditions: Homo sapiens; for viability at 0.4 µM / viability at 1.6 µM / viability at 25 µM / viability at 100 µM: A498

O=C(O)c1cn(C2CC2)c2cc(N3CCN(C(=O)CCCN4C(=O)SC(=Cc5ccccc5)C4=O)CC3)c(F)cc2c1=O [3a, 7-[4-[4-[5-benzylidene-2,4-dioxo-thiazolidin-3-yl]butanoyl]piperazin-1-yl]-1-cyclopropyl-6-fluoro-4-oxo-quinoline-3-carboxylic acid]
inhibition at 10 µM [1]: < 0%
inhibition at 10 µM [2]: 22.5%
inhibition at 10 µM [3]: 12.6%
inhibition at 10 µM [4]: 11.4%
inhibition at 10 µM [5]: 14.2%
inhibition at 10 µM [6]: < 0%
inhibition at 10 µM [7]: < 0%
inhibition at 10 µM [8]: < 0%
inhibition at 10 µM [9]: 9.4%
inhibition at 10 µM [10]: 3.7%
inhibition at 10 µM [11]: 27.4%
inhibition at 10 µM [12]: 8.9%
inhibition at 10 µM [13]: 9.8%
inhibition at 10 µM [14]: 29.1%
inhibition at 10 µM [15]: 41.4%
Growth Inhibition (%) [15]: 53.25% and 53.3%
inhibition at 10 µM [16]: 8.2%
inhibition at 10 µM [17]: 21.1%
inhibition at 10 µM [18]: 28.6%
inhibition at 10 µM [19]: 8.5%
inhibition at 10 µM [20]: 15.4%
inhibition at 10 µM [21]: 41.4%
inhibition at 10 µM [22]: 53.2%
Growth Inhibition (%) ([22]; Renal Cancer UO-31): 36.0%
Growth Inhibition (%) ([23]; Breast Cancer MCF7): 55.9%
inhibition at 10 µM [23]: 55.9%
inhibition at 10 µM [24]: 8.8%
inhibition at 10 µM [25]: 7.3%
inhibition at 10 µM [26]: 8.1%
inhibition at 10 µM [27]: < 0%
inhibition at 10 µM [28]: < 0%
MIC [29]: > 20 µM
MIC [30]: > 20 µM
viability at 0.4 µM [31]: 77.9%
viability at 1.6 µM [31]: 69.2%
viability at 25 µM [31]: 48.8%
viability at 100 µM [31]: 40.4%
IC50 ([31]; read-out: In vitro cytotoxicity (IC50) LOX IMVI (µM ± SEM)): 26.7 ± 1.5 µM
viability at 0.4 µM [32]: 103%
viability at 1.6 µM [32]: 92.7%
viability at 25 µM [32]: 69.3%
viability at 100 µM [32]: 56.1%
IC50 ([32]; A498, read-out: In vitro cytotoxicity (IC50) A498 cell line (µM ± SEM)): > 150 µM

O=C(O)c1cn(C2CC2)c2cc(N3CCN(C(=O)CCCN4C(=O)SC(=Cc5cccc([N+](=O)[O-])c5)C4=O)CC3)c(F)cc2c1=O [3d, 1-cyclopropyl-6-fluoro-7-[4-[4-[5-[(3-nitrophenyl)methylene]-2,4-dioxo-thiazolidin-3-yl]butanoyl]piperazin-1-yl]-4-oxoquinoline-3-carboxylic acid]
inhibition at 10 µM [1]: < 0%
inhibition at 10 µM [2]: < 0%
inhibition at 10 µM [3]: < 0%
inhibition at 10 µM [4]: < 0%
inhibition at 10 µM [5]: 7.8%
inhibition at 10 µM [6]: 2.3%
inhibition at 10 µM [7]: 5.2%
inhibition at 10 µM [8]: < 0%
inhibition at 10 µM [9]: 6.8%
inhibition at 10 µM [10]: < 0%
inhibition at 10 µM [11]: 20.7%
inhibition at 10 µM [12]: 9.5%
inhibition at 10 µM [13]: 1%
inhibition at 10 µM [14]: 18.2%
inhibition at 10 µM [15]: 26.5%
inhibition at 10 µM [16]: 0.8%
inhibition at 10 µM [17]: 8.1%
inhibition at 10 µM [18]: 10.3%
inhibition at 10 µM [19]: 1.6%
inhibition at 10 µM [20]: 3.1%
inhibition at 10 µM [21]: 8.9%
inhibition at 10 µM [22]: 20.7%
inhibition at 10 µM [23]: 1.9%
inhibition at 10 µM [24]: 8.2%
inhibition at 10 µM [25]: 3%
inhibition at 10 µM [26]: < 0%
inhibition at 10 µM [27]: < 0%
inhibition at 10 µM [28]: < 0%
MIC [29]: > 20 µM
MIC [30]: 0.87 µM (≈ 0.565 µg/mL)

COc1ccc(C=C2SC(=O)N(CCCC(=O)N3CCN(c4cc5c(cc4F)c(=O)c(C(=O)O)cn5C4CC4)CC3)C2=O)cc1 [3e, 1-cyclopropyl-6-fluoro-7-[4-[4-[5-[(4-methoxyphenyl)methylene]-2,4-dioxo-thiazolidin-3-yl]butanoyl]piperazin-1-yl]-4-oxoquinoline-3-carboxylic acid]
inhibition at 10 µM [1]: < 0%
inhibition at 10 µM [2]: < 0%
inhibition at 10 µM [3]: < 0%
inhibition at 10 µM [4]: < 0%
inhibition at 10 µM [5]: 7.9%
inhibition at 10 µM [6]: 0.4%
inhibition at 10 µM [7]: < 0%
inhibition at 10 µM [8]: 8.3%
inhibition at 10 µM [9]: 6%
inhibition at 10 µM [10]: 0%
inhibition at 10 µM [11]: 25.7%
inhibition at 10 µM [12]: 6.5%
inhibition at 10 µM [13]: 3.8%
inhibition at 10 µM [14]: 12.6%
inhibition at 10 µM [15]: 42.5%
inhibition at 10 µM [16]: < 0%
inhibition at 10 µM [17]: 19.7%
inhibition at 10 µM [18]: 7%
inhibition at 10 µM [19]: < 0%
inhibition at 10 µM [20]: 5.3%
inhibition at 10 µM [21]: 32%
inhibition at 10 µM [22]: 18.5%
inhibition at 10 µM [23]: < 0%
inhibition at 10 µM [24]: 2.4%
inhibition at 10 µM [25]: 10.3%
inhibition at 10 µM [26]: 0.6%
inhibition at 10 µM [27]: < 0%
inhibition at 10 µM [28]: < 0%
MIC [29]: > 20 µM
MIC [30]: > 20 µM
viability at 0.4 µM [31]: 76.7%
viability at 1.6 µM [31]: 67.7%
viability at 25 µM [31]: 52%
viability at 100 µM [31]: 47.4%
viability at 0.4 µM [32]: 102%
viability at 1.6 µM [32]: 91.7%
viability at 25 µM [32]: 69.4%
viability at 100 µM [32]: 56.2%

COc1ccc(/C=C2\SC(=O)N(CCCC(=O)N3CCN(c4cc5c(cc4F)c(=O)c(C(=O)O)cn5C4CC4)CC3)C2=O)cc1OC [3f]
inhibition at 10 µM [1]: 1.9%
inhibition at 10 µM [2]: 1.1%
inhibition at 10 µM [3]: 7.2%
inhibition at 10 µM [4]: < 0%
inhibition at 10 µM [5]: 1.3%
inhibition at 10 µM [6]: 10.6%
inhibition at 10 µM [7]: < 0%
inhibition at 10 µM [8]: 0.8%
inhibition at 10 µM [9]: 4.2%
inhibition at 10 µM [10]: < 0%
inhibition at 10 µM [11]: 7.8%
inhibition at 10 µM [12]: 4.4%
inhibition at 10 µM [13]: 0.9%
inhibition at 10 µM [14]: 4.9%
inhibition at 10 µM [15]: 2.4%
inhibition at 10 µM [16]: < 0%
inhibition at 10 µM [17]: 12.3%
inhibition at 10 µM [18]: 1.4%
inhibition at 10 µM [19]: < 0%
inhibition at 10 µM [20]: 2.9%
inhibition at 10 µM [21]: 15.5%
inhibition at 10 µM [22]: 14.5%
inhibition at 10 µM [23]: 3.9%
inhibition at 10 µM [24]: 1.2%
inhibition at 10 µM [25]: 3.4%
inhibition at 10 µM [26]: 0.9%
inhibition at 10 µM [27]: < 0%
inhibition at 10 µM [28]: < 0%
MIC [29]: > 20 µM
MIC [30]: > 20 µM
